Assay results taken from patent publication US7683089B1, “4-(Phenylmethyl and substituted phenylmethyl)-imidazole-2-thiones acting as specific alpha2 adrenergic agonists” (Allergan, Inc, priority 2004, dated 2010).

Key:
[1] = molecular target: T1, alpha2A adrenergic receptor (Homo sapiens, UniProt P08913); test: Receptor Selection and Amplification Technology (RSAT) assay, alpha2A; type: cell-based; conditions: RSAT in NIH-3T3 cells; ratio of maximal effect of drug to that of standard full agonist brimonidine (UK14304); NA = not active at concentrations less than 10 micromolar
T1 construct: expressed in transfected cells; host or cells: NIH-3T3 cells
T1 sequence (P08913 1-465): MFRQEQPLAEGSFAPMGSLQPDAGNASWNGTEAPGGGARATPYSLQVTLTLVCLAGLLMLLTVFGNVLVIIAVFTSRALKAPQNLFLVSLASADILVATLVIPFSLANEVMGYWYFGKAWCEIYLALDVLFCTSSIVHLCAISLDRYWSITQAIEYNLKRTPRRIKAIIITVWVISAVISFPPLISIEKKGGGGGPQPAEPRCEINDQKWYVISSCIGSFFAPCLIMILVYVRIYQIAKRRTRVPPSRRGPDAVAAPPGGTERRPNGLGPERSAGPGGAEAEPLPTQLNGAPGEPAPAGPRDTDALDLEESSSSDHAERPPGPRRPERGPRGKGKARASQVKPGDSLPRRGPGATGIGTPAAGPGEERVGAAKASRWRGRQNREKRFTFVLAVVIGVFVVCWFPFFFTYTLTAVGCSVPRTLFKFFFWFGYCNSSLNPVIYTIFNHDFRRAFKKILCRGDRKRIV
Source text: (§1) The imidazole-2-thione compounds of the invention are agonists of alpha2 adrenergic receptors. […] Al., 1995, Pharmacol. Toxicol. 76, pp. 308-311 (incorporated herein by reference) and is also described below. Another reference pertinent to this assay is Conklin et al. (1993) Nature 363:274-6, also incorporated herein by reference.
(§2) Receptor Selection and Amplification Technology (RSAT) Assay
(§3) The RSAT assay measures a receptor-mediated loss of contact inhibition that results in selective proliferation of receptor-containing cells in a mixed population of confluent cells. The increase in cell number is assessed with an appropriate transfected marker gene such as β-galactosidase, the activity of which can be easily measured in a 96-well format. Receptors that activate the G protein, Gq, elicit this response. Alpha2 receptors, which normally couple to Gi, activate the RSAT response when coexpressed with a hybrid Gq protein that has a Gi receptor recognition domain, called Gq/i5.
(§4) NIH-3T3 cells are plated at a density of 2×10^6 cells in 15 cm dishes and maintained in Dulbecco's modified Eagle's medium supplemented with 10% calf serum. One day later, cells are cotransfected by calcium phosphate precipitation with mammalian expression plasmids encoding p-SV-β-galactosidase (5-10 μg), receptor (1-2 μg) and G protein (1-2 μg). 40 μg salmon sperm DNA may also be included in the transfection mixture. […] After washing with phosphate-buffered saline, β-galactosidase enzyme activity is determined by adding 200 μl of the chromogenic substrate (consisting of 3.5 mM o-nitrophenyl-β-D-galactopyranoside and 0.5% nonidet P-40 in phosphate buffered saline), incubating overnight at 30° C. and measuring optical density at 420 nm. The absorbance is a measure of enzyme activity, which depends on cell number and reflects a receptor-mediated cell proliferation. The efficacy or intrinsic activity is calculated as a ratio of the maximal effect of the drug to the maximal effect of a standard full agonist for each receptor subtype. […]

[2] = molecular target: T2, alpha2B adrenergic receptor (Homo sapiens, UniProt P18089); test: Receptor Selection and Amplification Technology (RSAT) assay, alpha2B; type: cell-based; conditions: RSAT in NIH-3T3 cells; ratio of maximal effect of drug to that of standard full agonist brimonidine (UK14304); NA = not active at concentrations less than 10 micromolar
T2 construct: expressed in transfected cells; host or cells: NIH-3T3 cells
T2 sequence (P18089 1-450): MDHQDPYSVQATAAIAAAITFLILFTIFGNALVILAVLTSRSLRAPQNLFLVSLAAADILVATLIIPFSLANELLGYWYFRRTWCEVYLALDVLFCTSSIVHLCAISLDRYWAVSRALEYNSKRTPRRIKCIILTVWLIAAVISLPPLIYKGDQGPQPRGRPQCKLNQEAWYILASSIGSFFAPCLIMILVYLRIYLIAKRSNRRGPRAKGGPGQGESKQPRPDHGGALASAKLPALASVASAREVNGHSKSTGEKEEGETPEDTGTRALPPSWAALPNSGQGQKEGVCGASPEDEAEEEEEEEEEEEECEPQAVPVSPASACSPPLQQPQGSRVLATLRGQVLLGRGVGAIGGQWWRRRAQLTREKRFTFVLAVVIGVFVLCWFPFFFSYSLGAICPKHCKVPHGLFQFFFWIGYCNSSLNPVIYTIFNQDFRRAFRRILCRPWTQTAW
Source text: as §1, §2, §3
NIH-3T3 cells are plated at a density of 2×10^6 cells in 15 cm dishes and maintained in Dulbecco's modified Eagle's medium supplemented with 10% calf serum. One day later, cells are cotransfected by calcium phosphate precipitation with mammalian expression plasmids encoding p-SV-β-galactosidase (5-10 μg), receptor (1-2 μg) and G protein (1-2 μg). 40 μg salmon sperm DNA may also be included in the transfection mixture. Fresh media is added on the following day and 1-2 days later, cells are harvested and frozen in 50 assay aliquots. Cells are thawed and 100 μl added to 100 μl aliquots of various concentrations of drugs in triplicate in 96-well dishes. Incubations continue 72-96 hr at 37° C. After washing with phosphate-buffered saline, β-galactosidase enzyme activity is determined by adding 200 μl of the chromogenic substrate (consisting of 3.5 mM o-nitrophenyl-β-D-galactopyranoside and 0.5% nonidet P-40 in phosphate buffered saline), incubating overnight at 30° C. and measuring optical density at 420 nm. The absorbance is a measure of enzyme activity, which depends on cell number and reflects a receptor-mediated cell proliferation. The efficacy or intrinsic activity is calculated as a ratio of the maximal effect of the drug to the maximal effect of a standard full agonist for each receptor subtype. […]
The RSAT assay measures a receptor-mediated loss of contact inhibition that results in selective proliferation of receptor-containing cells in a mixed population of confluent cells. The increase in cell number is assessed with an appropriate transfected marker gene such as ∃-galactosidase, the activity of which can be easily measured in a 96-well format. […]

[3] = molecular target: T3, alpha2C adrenergic receptor (Homo sapiens, UniProt P18825); test: Receptor Selection and Amplification Technology (RSAT) assay, alpha2C; type: cell-based; conditions: RSAT in NIH-3T3 cells; ratio of maximal effect of drug to that of standard full agonist brimonidine (UK14304); NA = not active at concentrations less than 10 micromolar
T3 construct: expressed in transfected cells; host or cells: NIH-3T3 cells
T3 sequence (P18825 1-462): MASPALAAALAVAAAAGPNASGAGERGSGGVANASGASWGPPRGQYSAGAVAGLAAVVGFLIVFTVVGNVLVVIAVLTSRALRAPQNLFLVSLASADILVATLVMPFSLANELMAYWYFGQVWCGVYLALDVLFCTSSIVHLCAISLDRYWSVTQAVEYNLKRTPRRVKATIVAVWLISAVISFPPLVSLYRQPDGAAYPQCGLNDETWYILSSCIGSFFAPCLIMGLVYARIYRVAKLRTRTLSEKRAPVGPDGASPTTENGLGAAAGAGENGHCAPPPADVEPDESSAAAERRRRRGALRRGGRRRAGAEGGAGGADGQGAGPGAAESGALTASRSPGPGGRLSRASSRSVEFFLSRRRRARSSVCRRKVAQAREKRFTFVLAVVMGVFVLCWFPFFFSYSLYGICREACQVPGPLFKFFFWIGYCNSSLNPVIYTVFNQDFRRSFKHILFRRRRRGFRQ
Source text: as §1, §2, §3, §4

male Sprague-Dawley rats = test: Sedative activity (exploratory behavior/locomotor skills); type: in vivo, rat; conditions: intraperitoneally, up to a dose of 1 mg/kg, 30 minutes after injection
Procedure: To test sedation, six male Sprague-Dawley rats are given up to 3 mg/kg of the test compound in a saline or DMSO vehicle by intraperitoneal injection (i.p.). Sedation is graded 30 minutes following administration of the drug by monitoring locomotor skills as follows.
The Sprague-Dawley rats are weighed and 1 ml/kg body weight of an appropriate concentration (ie. 3 mg/ml for a final dose of 3 mg/kg) drug solution is injected intraperitoneally. Typically the test compound is formulated in approximately 10 to 50% DMSO. The results are compared to controls that are injected with 1 ml/kg saline or 10 to 50% DMSO. Rat activity is then determined 30 minutes after injection of the drug solution. Rats are placed in a dark covered chamber and a digicom analyzer (Omnitech Electronic) quantitates their exploratory behavior for a five-minute period. The machine records each time the rat interrupts an array of 32 photoelectric beams in the X and Y orientation.

| Compound | Intrinsic Activity Alpha 2A [1] | Intrinsic Activity Alpha 2B [2] | Intrinsic Activity Alpha 2C [3] | sedative effect (male Sprague-Dawley rats) |
| --- | --- | --- | --- | --- |
| CC(c1c[nH]c(=S)[nH]1)c1cccc(Cl)c1Cl (stereo not drawn) [Compound 1, 4-[1-(2,3-dichloro-phenyl)-ethyl]-1,3-dihydro-imidazole-2-thione] | 0.87 | 0.85 | 1.03 | no sedative effect |
| CC(c1c[nH]c(=S)[nH]1)c1cccc(F)c1F (stereo not drawn) [Compound 2, 4-[1-(2,3-difluoro-phenyl)-ethyl]-1,3-dihydro-imidazole-2-thione] | 0.66 | 0.99 | 0.83 | – |
| CC(c1c[nH]c(=S)[nH]1)c1cccc(C(F)(F)F)c1F (stereo not drawn) [Compound 3, 4-[1-(2-fluoro-3-trifluoromethyl-phenyl)-ethyl]-1,3-dihydro-imidazole-2-thione] | 0.88 | 1.04 | 0.84 | no sedative effect |
| CC(c1ccccc1)c1c[nH]c(=S)[nH]1 (stereo not drawn) [Compound 4, 4-(1-phenyl-ethyl)-1,3-dihydro-imidazole-2-thione] | – | 1.11 | – | – |
